Patent US11827690B2, “ApoC-II mimetic peptides” (THE UNITED STATES OF AMERICA, as represented by the …, priority 2017, dated 2023)

Columns and labels:
[1] = target: T1, LPL inhibited by apoC-III (Bos taurus, UniProt P11151); test: LPL activation assay using apoC-III transgenic mice plasma as substrate; assay type: biochemical; set-up: host or cells: apoC-III comes with the plasma of apoC-III transgenic C57Bl/6 mice; conditions: all three transgenic mice plasma samples, FIG. 33
T1 sequence (P11151 29-478): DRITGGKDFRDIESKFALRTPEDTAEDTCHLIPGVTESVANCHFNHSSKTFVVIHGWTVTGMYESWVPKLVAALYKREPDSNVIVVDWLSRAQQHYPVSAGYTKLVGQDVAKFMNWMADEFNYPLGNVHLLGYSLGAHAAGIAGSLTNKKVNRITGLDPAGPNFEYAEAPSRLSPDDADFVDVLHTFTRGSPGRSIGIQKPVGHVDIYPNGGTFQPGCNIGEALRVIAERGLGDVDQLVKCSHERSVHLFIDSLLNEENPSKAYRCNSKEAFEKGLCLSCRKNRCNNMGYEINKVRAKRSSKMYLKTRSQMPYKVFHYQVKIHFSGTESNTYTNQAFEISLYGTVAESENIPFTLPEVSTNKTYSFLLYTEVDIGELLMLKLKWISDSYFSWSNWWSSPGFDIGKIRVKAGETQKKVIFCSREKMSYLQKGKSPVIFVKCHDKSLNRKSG
Experimental: (§1) LPL activity assay: 10 μL of Intralipid, human plasma sample, or mouse plasma sample was added in each well using repeater pipette. 10 μL (or 15 μL in the wells with no LPL control) of PBS and 10 μL of 1% BSA was added in each well using repeater pipette. 10 μL of peptides were added to corresponding wells in vertical triplicates (lowest concentration is on a left, highest is on the right). The plate was spun down at 1000 RPM for 10 seconds to mix and to remove the solutions from the wall of each well. The plate was put on ice and 5 μL of LPL was added using repeater pipette. The plate was spun down again at 1000 RPM for 10 seconds. The plate was covered and put back on ice for an incubation of 30 min. The plate was then moved to 37° C. and incubated for 1 hour.
(§2) Free fatty acids (NEFA) assay: 45 μL of 5 nmoL standard and 0 nmoL control (0.2% BSA) were added to corresponding wells. 225 μL of reagent A was added in each well using the reagent tray and 12-channel pipette. The plate was incubated for 10 min before 75 μL of reagent B was added to each well using the reagent tray and 12-channel pipette. The plate was not covered due to the high volume. The absorbance at 550 nm and 660 nm was measured.
LPL assay was performed using Intralipid, high TG human plasma (1:50 dilution), or apoC-III transgenic mouse plasma (1:50 dilution). […]

apoC-II knockout mice [2] = test: plasma lipids of apoC-II knockout mice after peptide injection; assay type: in vivo
[3] = target: T1, LPL inhibited by apoC-III; test: LPL assay using human apoC-II deficient plasma as substrate with recombinant apoC-III; assay type: biochemical; conditions: 25 μM apoC-III, FIG. 50
Experimental: as §1, §2
LPL assay was performed using Intralipid, high TG human plasma (1:50 dilution), or apoC-III transgenic mouse plasma (1:50 dilution). When Intralipid was used as a substrate, 25 or 50 μM recombinant ApoC-III was added as an inhibitor. When the high TG human plasma was used as a substrate, 25 or 50 μM recombinant ApoC-III was added as an inhibitor with or without pre-incubation at 37° C. for 1 hour. An apoC-II mimetic peptide was added at various concentrations.

apoC-II knockout mice [4] = test: serum TG of apoC-II knockout mice after Intralipid injection; assay type: in vivo; conditions: peptide IP 1 hour after Intralipid, 5 and 10 μmole/kg, FIG. 37B
Experimental: C57Bl/6 mice (wild-type), apoC-II knockout (apoC-II KO) mice, and apoC-III transgenic mice were used for in vivo study. The C57Bl/6 mice (wild-type) were purchased from Taconic Biosciences Inc. The apoC-II KO mice were created as described in Sakurai et al., J Pharmacol Exp Ther 356:341-353, 2016. The apoC-III transgenic mice were generated by overexpressing human apoC-III in C57Bl/6 mice. See Qu et al., J. Lipid Res. 48:1476-1487, 2007.
Mice were fasted overnight (approximately 12 hours) before the study and 6 hours during the study, the next day. The apoC-II mimetic peptides were synthetically produced and free of biological contamination (not available as FDA approved compounds/treatment). Peptides were produced and used in sterile conditions and filtered by 0.2 nm filter before injections in a single dose 1-10 μmol/kg body weight (B. W.) administered either subcutaneous injection (S.Q. or S.C.), intraperitoneal injection (I.P.) or intravenous injection (I.V.) (in a sterile, pharmaceutical grade PBS solution at a volume ≤200 μL) as described in Sakurai et al., J Pharmacol Exp Ther 356:341-353, 2016. […]

[5] = SEC-FPLC, 1 μmole/kg, 6 hours after injection, FIG. 41

Sequence | effect on inhibition by elevated expression of apoC-III [1] | effect on inhibition by elevated expression of apoC-III ([1]; listed as ApoC-II-a) | time of maximum reduction of plasma TG (apoC-II knockout mice [2]; 0.1 μmol/kg intraperitoneally, after the peptide injection) | plasma TG (apoC-II knockout mice [2]; 0.1 μmol/kg of body weight intraperitoneally, FIG. 53) | level of HDL as measured by the phospholipid level (apoC-II knockout mice [2]; [5]) | level of VLDL as measured by the phospholipid level (apoC-II knockout mice [2]; [5]) | level of TG in the VLDL pool (apoC-II knockout mice [2]; SEC-FPLC, 1 μmole/kg, FIG. 42) | plasma TG (apoC-II knockout mice [2]; intraperitoneal injection) | plasma TG (apoC-II knockout mice [2]; repeat IP injection at 24 h intervals for 6 days, 0.25 and 1 μmole/kg, FIG. 40) | plasma TG (apoC-II knockout mice [2]; subcutaneous injection) | effect on inhibition of LPL by apoC-III [3] | serum TG increase after Intralipid injection (apoC-II knockout mice [4])
DWLKAFYDKVAEKLKEAFPAMSTYTGIFTDQVLSVLKGEE (listed as Homo sapiens) [apoC-II-a, excluded from the claimed peptides] | overcame the inhibitory effect of elevated expression of apoC-III | overcomes the inhibitory effect of elevated expression of apoC-III | – | – | – | – | – | – | – | – | – | –
DYLKEVFEKLRDLYEKFTPAVSTYTGIFTDQVLSVLKGEE [Delta6PV] | – | – | about 6 hours | rapid reduction of plasma TG | increased | decreased | decreased | rapid and marked reduction of plasma TG | marked and lasting reduction of plasma TG | rapid and marked reduction of plasma TG | overcame the inhibitory effect of apoC-III and facilitated lipolysis | the TG increase was significantly reduced
